PubChem BioAssay (NCI)
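Exposure lasted 48 hours, with cells grown in 96-well plates and compounds tested at five concentrations. Here, GI50 denotes the concentration required for 50% inhibition of growth. At the TGI there is no net growth.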

How the values were obtained:
Assay in all cases: NCI anticancer screen, dose series, 48 h
A549 NSCLC = system: A549 NSCLC
IGROV1 ovarian = system: IGROV1 ovarian
LOX IMVI melanoma = system: LOX IMVI melanoma
MOLT-4 leukemia = system: MOLT-4 leukemia
NCI-H23 lung = system: NCI-H23 lung
NCI-H522 lung = system: NCI-H522 lung
SK-OV-3 ovarian = system: SK-OV-3 ovarian
U251 CNS = system: U251 CNS
UO-31 renal = system: UO-31 renal
SK-MEL-2 melanoma = system: SK-MEL-2 melanoma

Question: For `N#C/C(=C1\OC(=O)C(c2ccc(Br)cc2)=C1O)c1ccc(Br)cc1`, which TGI (A549 NSCLC) is on record?
Answer: The TGI was 44.2 µM.

Question: What about the TGI (IGROV1 ovarian) of the same compound?
Answer: Its TGI is 34.4 µM.

Question: What about the TGI (LOX IMVI melanoma) of the same compound?
Answer: The TGI was 30.7 µM.

Question: What about the TGI (MOLT-4 leukemia) of the same compound?
Answer: The TGI was 57.1 µM.

Question: And the TGI (NCI-H23 lung)?
Answer: The TGI was 26.2 µM.

Question: And the TGI (NCI-H522 lung)?
Answer: Its TGI is 25.6 µM.

Question: What about the TGI (SK-OV-3 ovarian) of the same compound?
Answer: The TGI was 39.9 µM.

Question: What about the TGI (U251 CNS) of the same compound?
Answer: Its TGI is 26.1 µM.

Question: What about the TGI (UO-31 renal) of the same compound?
Answer: Its TGI is 28.5 µM.

Question: Which TGI (IGROV1 ovarian) does the source give for `CCCCCCCCCCCCOC(=S)NCCCC` here?
Answer: Its TGI is 81.1 µM.

Question: And the TGI (LOX IMVI melanoma)?
Answer: Its TGI is 32 µM.

Question: And the TGI (MOLT-4 leukemia)?
Answer: Its TGI is 36 µM.

Question: And the TGI (NCI-H23 lung)?
Answer: Its TGI is 57.9 µM.

Question: And the TGI (NCI-H522 lung)?
Answer: Its TGI is 36.5 µM.

Question: What about the TGI (SK-MEL-2 melanoma) of the same compound?
Answer: Its TGI is 44.2 µM.

Question: What about the TGI (SK-OV-3 ovarian) of the same compound?
Answer: The TGI was 71.1 µM.

Question: What about the TGI (U251 CNS) of the same compound?
Answer: The TGI was 37.2 µM.

Question: What about the TGI (UO-31 renal) of the same compound?
Answer: The TGI was 20.1 µM.

Question: For `CC1=NCCc2c1[nH]c1cc(O)ccc21`, which TGI (A549 NSCLC) is on record?
Answer: Its TGI is greater than 100 µM.

Question: And the TGI (IGROV1 ovarian)?
Answer: Its TGI is greater than 100 µM.

Question: What about the TGI (LOX IMVI melanoma) of the same compound?
Answer: The TGI was greater than 100 µM.

Question: And the TGI (MOLT-4 leukemia)?
Answer: Its TGI is greater than 100 µM.

Question: And the TGI (NCI-H23 lung)?
Answer: Its TGI is greater than 100 µM.

Question: What about the TGI (SK-MEL-2 melanoma) of the same compound?
Answer: Its TGI is greater than 100 µM.

Question: What about the TGI (SK-OV-3 ovarian) of the same compound?
Answer: Its TGI is greater than 100 µM.

Question: And the TGI (UO-31 renal)?
Answer: Its TGI is greater than 100 µM.

Question: What does the source list for `COc1ccc(-c2ccc(/C=N/n3c(COc4ccc(Cl)cc4Cl)n[nH]c3=S)o2)c([N+](=O)[O-])c1`?
Answer: GI50 (A549 NSCLC): 19.5 µM; TGI (A549 NSCLC): > 100 µM; GI50 (IGROV1 ovarian): 38.7 µM; TGI (IGROV1 ovarian): > 100 µM; GI50 (MOLT-4 leukemia): 14 µM; TGI (MOLT-4 leukemia): 38.9 µM; GI50 (NCI-H23 lung): 16.1 µM; TGI (NCI-H23 lung): 33.2 µM; GI50 (NCI-H522 lung): 29.7 µM; TGI (NCI-H522 lung): > 100 µM; GI50 (SK-OV-3 ovarian): 23.6 µM; TGI (SK-OV-3 ovarian): > 100 µM; GI50 (U251 CNS): 22 µM; TGI (U251 CNS): > 100 µM; GI50 (UO-31 renal): 43.9 µM; TGI (UO-31 renal): > 100 µM

Question: How did the TGI (A549 NSCLC) turn out when `N#CC(C(=O)/C(=N/NC(=O)c1ccccc1O)C(C#N)c1ccc(Cl)cc1)c1ccc(Cl)cc1` (stereo not drawn) was run?
Answer: The TGI was 72.8 µM.

Question: What about the TGI (LOX IMVI melanoma) of the same compound?
Answer: The TGI was 27.3 µM.

Question: What about the TGI (NCI-H23 lung) of the same compound?
Answer: Its TGI is 23.7 µM.

Question: What about the TGI (SK-MEL-2 melanoma) of the same compound?
Answer: Its TGI is 30.1 µM.

Question: And the TGI (SK-OV-3 ovarian)?
Answer: Its TGI is 90.5 µM.

Question: And the TGI (U251 CNS)?
Answer: The TGI was 22.5 µM.

Question: And the TGI (UO-31 renal)?
Answer: Its TGI is 30.9 µM.

Question: What does the source list for `C=C1C(=O)O[C@H]2[C@H]1[C@H](OC(=O)/C(C)=C\C)CC(=C)[C@@H]1[C@H](O)[C@H]3O[C@@]3(C)[C@@]12O`?
Answer: TGI (A549 NSCLC): > 100 µM; TGI (IGROV1 ovarian): > 100 µM; TGI (LOX IMVI melanoma): > 100 µM; TGI (NCI-H23 lung): > 100 µM; TGI (NCI-H522 lung): > 100 µM; TGI (SK-MEL-2 melanoma): > 100 µM; TGI (SK-OV-3 ovarian): > 100 µM; TGI (U251 CNS): > 100 µM; TGI (UO-31 renal): > 100 µM

Question: Which GI50 (A549 NSCLC) does the source give for `COc1ccc(N2C(C)=C(C#N)C34C(=O)N(c5ccccc5)C(=O)C3=C(O)C=CC24O)cc1` (stereo not drawn) here?
Answer: Its GI50 is 26.3 µM.

Question: And the TGI (A549 NSCLC)?
Answer: Its TGI is greater than 100 µM.

Question: And the GI50 (IGROV1 ovarian)?
Answer: The GI50 was 2.11 µM.

Question: What about the TGI (IGROV1 ovarian) of the same compound?
Answer: The TGI was 21.1 µM.

Question: What about the GI50 (LOX IMVI melanoma) of the same compound?
Answer: The GI50 was 5.24 µM.

Question: What about the TGI (LOX IMVI melanoma) of the same compound?
Answer: Its TGI is 18.8 µM.

Question: And the GI50 (MOLT-4 leukemia)?
Answer: Its GI50 is 21.2 µM.

Question: And the TGI (MOLT-4 leukemia)?
Answer: Its TGI is 71.7 µM.

Question: What about the GI50 (NCI-H23 lung) of the same compound?
Answer: Its GI50 is 8.86 µM.

Question: What about the TGI (NCI-H23 lung) of the same compound?
Answer: Its TGI is 58 µM.

Question: And the GI50 (SK-MEL-2 melanoma)?
Answer: Its GI50 is 19.5 µM.

Question: And the TGI (SK-MEL-2 melanoma)?
Answer: Its TGI is 46.3 µM.

Question: What about the GI50 (SK-OV-3 ovarian) of the same compound?
Answer: Its GI50 is 36.2 µM.

Question: And the TGI (SK-OV-3 ovarian)?
Answer: Its TGI is greater than 100 µM.

Question: What about the GI50 (U251 CNS) of the same compound?
Answer: The GI50 was 13 µM.

Question: And the TGI (U251 CNS)?
Answer: Its TGI is 25.7 µM.

Question: And the GI50 (UO-31 renal)?
Answer: Its GI50 is 13.9 µM.

Question: What about the TGI (UO-31 renal) of the same compound?
Answer: Its TGI is 55.8 µM.

Question: With `COc1nc(NC2OCC(OC(C)=O)C(OC(C)=O)C2OC(C)=O)c(N=CC=Nc2c(NC3OCC(OC(C)=O)C(OC(C)=O)C3OC(C)=O)nc(OC)n(C)c2=O)c(=O)n1C` (stereo not drawn) as the compound, how does the TGI (A549 NSCLC) read?
Answer: The TGI was greater than 100 µM.

Question: What about the TGI (IGROV1 ovarian) of the same compound?
Answer: Its TGI is greater than 100 µM.

Question: What about the TGI (LOX IMVI melanoma) of the same compound?
Answer: The TGI was greater than 100 µM.

Question: What about the TGI (NCI-H23 lung) of the same compound?
Answer: The TGI was greater than 100 µM.

Question: And the TGI (NCI-H522 lung)?
Answer: Its TGI is greater than 100 µM.

Question: What about the TGI (SK-MEL-2 melanoma) of the same compound?
Answer: The TGI was greater than 100 µM.

Question: What about the TGI (SK-OV-3 ovarian) of the same compound?
Answer: The TGI was greater than 100 µM.

Question: What about the TGI (U251 CNS) of the same compound?
Answer: The TGI was greater than 100 µM.

Question: What about the TGI (UO-31 renal) of the same compound?
Answer: The TGI was greater than 100 µM.

Question: What does the source list for `COC1(C(=O)N[C@@H](C)c2ccc(-n3cc(F)cn3)nc2)CCC(c2nc(C)cc(Nc3cc(C)[nH]n3)n2)CC1` (stereo partly drawn)?
Answer: GI50 (A549 NSCLC): 1.78 µM; TGI (A549 NSCLC): 16.3 µM; GI50 (LOX IMVI melanoma): 0.714 µM; TGI (LOX IMVI melanoma): 2.54 µM; GI50 (MOLT-4 leukemia): 3.48 µM; TGI (MOLT-4 leukemia): > 100 µM; GI50 (NCI-H23 lung): 2.6 µM; TGI (NCI-H23 lung): 19.9 µM; GI50 (NCI-H522 lung): 2.26 µM; TGI (NCI-H522 lung): 16.7 µM; GI50 (SK-MEL-2 melanoma): 6.82 µM; TGI (SK-MEL-2 melanoma): 23.2 µM; GI50 (SK-OV-3 ovarian): 1.11 µM; TGI (SK-OV-3 ovarian): 5.07 µM; GI50 (U251 CNS): 1.25 µM; TGI (U251 CNS): 22.6 µM; GI50 (UO-31 renal): 0.436 µM; TGI (UO-31 renal): 1.99 µM
